Experimental data from the CheMixHub viscosity set.

Test: xn = mol fraction of the nth substance listed

CCCCCCCCO + CCC(C)=O
viscosity [mPa·s], 100 kPa
Conditions | x2 = 0.0822 | x2 = 0.1611 | x2 = 0.2403 | x2 = 0.3498 | x2 = 0.4409 | x2 = 0.5588 | x2 = 0.6462 | x2 = 0.7398 | x2 = 0.8503 | x2 = 0.9398
293.15 K | 7.1 | 5.43 | 4.3 | 3.18 | 2.46 | 1.7 | 1.26 | 0.96 | 0.68 | 0.49
303.15 K | 4.93 | 3.97 | 3.09 | 2.32 | 1.7 | 1.03 | 0.75 | 0.62 | 0.49 | 0.42
313.15 K | 3.59 | 2.87 | 2.28 | 1.69 | 1.32 | 0.98 | 0.78 | 0.62 | 0.49 | 0.39
323.15 K | 2.74 | 2.22 | 1.82 | 1.38 | 1.1 | 0.83 | 0.67 | 0.54 | 0.43 | 0.35

CCCCCCCCO + NCCO
viscosity [mPa·s], 101.3 kPa
Conditions | x2 = 0.1 | x2 = 0.2 | x2 = 0.3 | x2 = 0.4 | x2 = 0.5 | x2 = 0.6 | x2 = 0.7 | x2 = 0.8 | x2 = 0.9
303.15 K | 6.48 | 6.8 | 7.36 | 8.14 | 9.01 | 9.97 | 11 | 12.1 | 13.4
313.15 K | 4.68 | 4.93 | 5.28 | 5.77 | 6.27 | 6.83 | 7.48 | 8.16 | 8.98
323.15 K | 3.49 | 3.68 | 3.92 | 4.23 | 4.55 | 4.9 | 5.34 | 5.79 | 6.29

CCCCCCCCO + CCCCCC
298.15 K, 101.33 kPa
Conditions | viscosity [mPa·s]
x2 = 0.1657 | 4.313
x2 = 0.2119 | 3.677
x2 = 0.274 | 2.968
x2 = 0.3717 | 2.093
x2 = 0.4775 | 1.432
x2 = 0.5556 | 1.096
x2 = 0.6659 | 0.759
x2 = 0.7638 | 0.559
x2 = 0.8406 | 0.443
x2 = 0.9211 | 0.35
x2 = 0.9597 | 0.319

C=Cc1ccccc1 + CCCCO
viscosity [mPa·s], 101.33 kPa
Conditions | x1 = 0.0999 | x1 = 0.2019 | x1 = 0.2994 | x1 = 0.3982 | x1 = 0.5226 | x1 = 0.602 | x1 = 0.703 | x1 = 0.7942 | x1 = 0.8935
298.15 K | 1.971 | 1.644 | 1.368 | 1.165 | 0.969 | 0.913 | 0.821 | 0.772 | 0.729
303.15 K | 1.809 | 1.47 | 1.23 | 1.052 | 0.885 | 0.83 | 0.767 | 0.721 | 0.681
308.15 K | 1.636 | 1.327 | 1.104 | 0.95 | 0.811 | 0.762 | 0.693 | 0.66 | 0.63

CC(C)(C)N + Cc1ccccc1
303.15 K, 101 kPa
Conditions | viscosity [mPa·s]
x2 = 0.1549 | 0.4385
x2 = 0.2226 | 0.4405
x2 = 0.3039 | 0.4431
x2 = 0.3981 | 0.4489
x2 = 0.522 | 0.458
x2 = 0.6221 | 0.4693
x2 = 0.7184 | 0.4824
x2 = 0.8751 | 0.5067

BrC(Br)Br + CN(C)C=O
Conditions | viscosity [mPa·s]
298 K, 101.3 kPa, x1 = 0.1418 | 1.075
298 K, 101.3 kPa, x1 = 0.2704 | 1.355
298 K, 101.3 kPa, x1 = 0.463 | 1.794
298 K, 101.3 kPa, x1 = 0.6145 | 2.007
298 K, 101.3 kPa, x1 = 0.7144 | 2.037
298 K, 101.3 kPa, x1 = 0.818 | 2.016
298.15 K, 101 kPa, x1 = 0.1458 | 1.048
298.15 K, 101 kPa, x1 = 0.1971 | 1.237
298.15 K, 101 kPa, x1 = 0.2942 | 1.486
298.15 K, 101 kPa, x1 = 0.3961 | 1.703
298.15 K, 101 kPa, x1 = 0.4962 | 1.956
298.15 K, 101 kPa, x1 = 0.5972 | 2.102
298.15 K, 101 kPa, x1 = 0.6959 | 2.122
298.15 K, 101 kPa, x1 = 0.7985 | 2.147
298.15 K, 101 kPa, x1 = 0.8992 | 2.074
303.15 K, 101 kPa, x1 = 0.1458 | 0.9843
303.15 K, 101 kPa, x1 = 0.1971 | 1.162
303.15 K, 101 kPa, x1 = 0.2942 | 1.371
303.15 K, 101 kPa, x1 = 0.3961 | 1.567
303.15 K, 101 kPa, x1 = 0.4962 | 1.793
303.15 K, 101 kPa, x1 = 0.5972 | 1.927
303.15 K, 101 kPa, x1 = 0.6959 | 1.953
303.15 K, 101 kPa, x1 = 0.7985 | 1.966
303.15 K, 101 kPa, x1 = 0.8992 | 1.934
308.15 K, 101 kPa, x1 = 0.1458 | 0.9091
308.15 K, 101 kPa, x1 = 0.1971 | 1.066
308.15 K, 101 kPa, x1 = 0.2942 | 1.267
308.15 K, 101 kPa, x1 = 0.3961 | 1.443
308.15 K, 101 kPa, x1 = 0.4962 | 1.643
308.15 K, 101 kPa, x1 = 0.5972 | 1.765
308.15 K, 101 kPa, x1 = 0.6959 | 1.801
308.15 K, 101 kPa, x1 = 0.7985 | 1.839
308.15 K, 101 kPa, x1 = 0.8992 | 1.797
313.15 K, 101 kPa, x1 = 0.1458 | 0.8479
313.15 K, 101 kPa, x1 = 0.1971 | 1
313.15 K, 101 kPa, x1 = 0.2942 | 1.173
313.15 K, 101 kPa, x1 = 0.3961 | 1.329
313.15 K, 101 kPa, x1 = 0.4962 | 1.513
313.15 K, 101 kPa, x1 = 0.5972 | 1.622
313.15 K, 101 kPa, x1 = 0.6959 | 1.66
313.15 K, 101 kPa, x1 = 0.7985 | 1.705
313.15 K, 101 kPa, x1 = 0.8992 | 1.679
318 K, 101.33 kPa, x1 = 0.1317 | 0.819
318 K, 101.33 kPa, x1 = 0.2705 | 1.046
318 K, 101.33 kPa, x1 = 0.4636 | 1.313
318 K, 101.33 kPa, x1 = 0.6142 | 1.471
318 K, 101.33 kPa, x1 = 0.7204 | 1.518
318 K, 101.33 kPa, x1 = 0.8296 | 1.519

CC(C)(C)N + CC(=O)OCCC(C)C
303.15 K, 101 kPa
Conditions | viscosity [mPa·s]
x1 = 0.1524 | 0.6892
x1 = 0.239 | 0.6687
x1 = 0.3353 | 0.6526
x1 = 0.4584 | 0.6341
x1 = 0.5807 | 0.5993
x1 = 0.6423 | 0.5804
x1 = 0.7298 | 0.5464
x1 = 0.8649 | 0.4955

BrC(Br)Br + CCOC(C)=O
viscosity [mPa·s]
Conditions | x1 = 0.2695 | x1 = 0.2713 | x1 = 0.5228 | x1 = 0.529 | x1 = 0.7671 | x1 = 0.7683
298 K, 101.3 kPa | – | 0.754 | – | 1.141 | – | 1.565
318 K, 101.33 kPa | 0.6005 | – | 0.8779 | – | 1.179 | –

CCCCCCCCO + c1ccccc1
viscosity [mPa·s]
Conditions | 293.15 K | 298.15 K | 303.15 K | 313.15 K | 323.15 K
100 kPa, x2 = 0.0834 | 7.415 | – | 5.248 | 3.685 | 2.768
100 kPa, x2 = 0.1711 | 6.045 | – | 4.294 | 2.932 | 2.235
100 kPa, x2 = 0.2512 | 5.033 | – | 3.532 | 2.393 | 1.821
100 kPa, x2 = 0.3602 | 3.894 | – | 2.682 | 1.807 | 1.365
100 kPa, x2 = 0.4552 | 3.069 | – | 2.085 | 1.4 | 1.062
100 kPa, x2 = 0.5612 | 2.333 | – | 1.545 | 1.076 | 0.818
100 kPa, x2 = 0.6483 | 1.824 | – | 1.236 | 0.904 | 0.7
100 kPa, x2 = 0.7524 | 1.334 | – | 0.957 | 0.736 | 0.594
100 kPa, x2 = 0.8537 | 0.975 | – | 0.736 | 0.608 | 0.516
100 kPa, x2 = 0.9502 | 0.748 | – | 0.612 | 0.525 | 0.455
101.33 kPa, x1 = 0.2 | – | 0.863 | – | – | 0.57
